Experiment [1] addresses T1, PSEN1 T147A–APH1A γ-secretase complex (Homo sapiens, UniProt P49768+Q92542+Q96BI3+Q9NZ42, T147A).
T1 construct: expressed in transfected cells; host or cells: Psen1/2 double KO/Aph1ABC triple KO MEFs, pools without clonal selection
In words: Aβ40 secretion, MEF cell pool restored with PSEN1 T147A–APH1A. It counts as cell-based. To be noted: PSEN1 T147A (TM2)–APH1A cell pool; N = 3 to 4; mean (95% CI); decimal comma. On the procedure: (§1) We turned to experimental site–directed mutagenesis and selected a series of amino acids (Fig. 3) in the entrance channel for mutation to alanine. […] More importantly, they were all enzymatically active as shown by the secretion of Aβ40 in the supernatants of the cell cultures (Fig. 3B).
(§2) Conditional Psen1/2 double KO mice were crossed with conditional Aph1ABC triple KO mice ([29], [52], [58], [59]). At embryonic day 7.5, embryos were dissected and dissociated, and cells were plated in the presence of Dulbecco’s modified Eagle’s medium (DMEM)/F12 50% fetal calf serum (FCS) (Invitrogen). Primary MEFs were immortalized by transduction with LargeT antigen. Psen1/2 double KO/Aph1ABC triple KO MEFs were generated by transduction with a Cre-GFP–expressing adenoviral vector, and GFP-positive MEFs were sorted by fluorescence-activated cell sorting analysis. Psen1/2 Aph1ABC-deficient MEFs were maintained in DMEM/f12 10% FCS. To rescue γ-secretase expression, Psen1/2 double KO/Aph1ABC triple KO MEFs were transduced using Murine Stem Cell Virus retroviral vector system (pMSCV) viral vectors (Clontech) containing the human coding sequences of the different PSEN and APH1 homologs and the zeocin selection marker. An Internal Ribosome Entry Site sequence was cloned between the coding sequences for PSEN and APH1 to ensure co-expression of both proteins. Stable transfected cell lines were selected using 500-μg/ml zeocin (Invitrogen). Four different combinations were made: PSEN1 and APH1AL, PSEN1 and APH1B, PSEN2 and APH1AL, and PSEN2 and APH1B. These cell lines were transduced with pMSCV viral vectors (Clontech) expressing APP-C99-GFP-puromycin. […]
(§3) The number of plated cells and incubation times were determined in respect to linearity of Aβ peptide secretion, the dynamic range of Aβ peptide quantification in the medium, and sensitivity to dimethylsulfoxide (DMSO). […] The cell viability was assessed using the CellTiter-Glo Luminescent assay (Promega) that measures ATP production. […] We however measured five compounds at the Leuven site and noticed that absolute IC50 values were different (Fig. S2). […]

Experiment [2] addresses T2, PSEN1 T147A–APH1A γ-secretase complex (Homo sapiens, UniProt P49768, T147A).
T2 construct: expressed in transfected cells; host or cells: Psen1/2 double KO/Aph1ABC triple KO MEFs, pools without clonal selection
The experiment is described as above. It is filed as cell-based. To be noted: decimal comma. On the procedure: as §1, §2, §3

The text below walks through data of PMC10318456, “Selective inhibitors of the PSEN1–gamma-secretase complex” (The Journal of Biological Chemistry, 2023).

The structures appear in SMILES notation.

The term IC50 denotes the midpoint of a concentration-inhibition curve.

As for `O=S(=O)(c1ccc(Cl)cc1)N1[C@H]2CC[C@@H]([C@H]1c1ccc(C(F)(F)F)cc1)[C@@H](O)C2` [(+)-9b], the IC50 in experiment [1] is 0.852 µM. On to `C[C@H](NC(=O)Cc1cc(F)cc(F)c1)C(=O)N[C@H](C(=O)OC(C)(C)C)c1ccccc1` [DAPT], for which the half-maximal inhibitory concentration (IC50) in experiment [2] (PSEN1 T147A (TM2)–APH1A cell pool, N = 3 to 4, mean (95% CI)) is 0.477 µM. For the same compound, in experiment [2] (PSEN1 T147A–APH1A cell pool), the “IC50 fold change to WT” value is on record as 2,826 fold.
